Structures are written as SMILES.

Consider four compounds from patent US20240180972A1, “HUMAN PLURIPOTENT STEM CELL-DERIVED SECRETOME AS A BIOLOGIC FOR PREVENTION AND TREATMENT OF NEURODEGENERATIVE AND APOPTOTIC DISEASES” (The Regents of the University of California, priority 2021, published 2024).

Series [1] relates to OCT4, NANOG. The series is described as follows: Pluripotency marker expression (qRT-PCR) in iPSCs after epigenetic modifiers. Format: cell-based, human. Particulars: iPSCs treated 3 days: 5 μM Nanomycin A, 10 μM LSD1 inhibitor, 5 μM 5-Azacytidine, 10 μM GSK126. The procedure: Total RNA was extracted using the RNeasy mini kit (Qiagen), and the SuperScript III First-Strand Synthesis System (Invitrogen) was used to synthesize cDNA according to the manufacturer's instructions. Real-time PCR was performed on a Bio-Rad iQ5 real-time PCR machine.
(§1) For the collection of CM, separate cultures of hiPSCs were set up for 3 days with one of the following small molecules: 5 μM Nanomycin A (A8191, Apexbio), 10 μM LSD1 inhibitor (489476, Millipore-Sigma), 5 μM 5-Azacytidine (C832A53, Thomas Scientific), and 10 μM GSK126 (67-905, Tocris). After 3 days of treatment, CM was collected (without the inhibitors) using the same protocol as described above.
Background: Real-time PCR tracks product formation cycle by cycle.

The subject of series [2] is IMR90 fibroblasts. The series is described as follows: MTT viability assay of IMR90 fibroblasts (H2O2, hESC-CM, dF-CM). Format: cell-based. Conditions: 200 μM H2O2. The text has this: hESC conditioned medium was previously shown to enhance myogenic and neurogenic responses of tissue precursor cells (43, 44), but the effects on cell viability were less studied. We decided to explore a protective role of hESC conditioned medium (hESC-CM) when cells experience oxidative damage, which is physiologically and clinically relevant in a number of human diseases (56, 57). To set up this experimental system, we first performed dose response studies in IMR90 fibroblasts to varying concentrations of H2O2 and of hESC-CM using an MTT assay.
We then tested eight experimental cohorts, e.g., 200 μM H2O2 alone or in combination with 30% hESC-CM or CM from hESC-derived fibroblasts (dF-CM) (43) and controls for the various culture medium formulations (FIG. 1, panel C).
When cells were grown to 70% confluence, they were subcultured at 1/5 dilution for later passaging.
After H2O2 and/or CM or CM-derived factors treatment, the number of viable cells was determined by a resorufin based assay using the commercially available CellTiter-Blue® cell viability assay (G8080, Promega), as per the manufacturer's protocol. MNs were cultured in a 96-well plate at a cell density of 2×10^4 and treated with H2O2 and/or CMs for 24 hours before performing the viability assay. A SpectraMax iD3 Multi-Mode Microplate Reader (Molecular Devices) was used for measuring fluorescence intensity (560/590 nm). […]

In series [3] the test system is human motor neurons (MNs). The series is described as follows: MTT viability and Annexin V apoptosis assays of human motor neurons exposed to H2O2. It counts as cell-based. The procedure: The process of MNP and MN differentiation was as published (61). Briefly, hPSCs were detached by 0.5 mM EDTA and split 1:10 on Matrigel-coated plates (1:50 dilution). After one day, the Essential 8 was changed to neural inducing medium containing neural basal medium (NBM) plus 3 μM CHIR99021 (Tocris), 2 μM LDN-193189 (Tocris) and 3 μM SB431542 (Stemgent). The NBM is composed of DMEM/F12, Neurobasal medium (FisherScientific) at 1:1, N2, B27, 0.1 mM ascorbic acid (Millipore-Sigma), 1× Glutamax and 1× penicillin/streptomycin (all from Invitrogen). The inducing medium was maintained for 5 days and changed every other day. On day 5, the cultured cells were split at 1:6 with Accutase and cultured in NBM containing 3 μM CHIR99021, 2 μM SB431542, 0.1 μM retinoic acid (RA, Stemgent) and 0.5 μM purmorphamine (Pur, Stemgent). […]
[…] A SpectraMax iD3 Multi-Mode Microplate Reader (Molecular Devices) was used for measuring fluorescence intensity (560/590 nm).
The apoptotic assay of fibroblasts was by Annexin V-CF Blue/7-AAD Apoptosis Detection Kit (ab214663, Abcam) according to the manufacturer's protocol. […] Finally, the stained samples were analyzed on a Guava Easycyte Flowcytometer (Millipore-Sigma) at an excitation wavelength of 488 nm and emission wavelengths of 525 and 625 nm. […] The stained plate was analyzed on a SpectraMax iD3 Multi-Mode Microplate Reader (495/525 nm). […]

Series [4] has as its system ALS-MNPs. In words: Viability (MTT) and apoptosis (Annexin V) of H2O2 exposed ALS-MNPs, incl. epigenetic inhibitors screen. It counts as cell-based, human. The protocol: […] MNs were cultured in a 96-well plate at a cell density of 2×10^4 and treated with H2O2 and/or CMs for 24 hours before performing the viability assay. A SpectraMax iD3 Multi-Mode Microplate Reader (Molecular Devices) was used for measuring fluorescence intensity (560/590 nm).
The apoptosis assay of fibroblasts was by Annexin V-CF Blue/7-AAD Apoptosis Detection Kit (ab214663, Abcam) according to the manufacturer's protocol. Briefly, cells were detached using 0.05% trypsin and washed twice with PBS. Then, samples were resuspended in 1× annexin-binding buffer and incubated with 5 μL Annexin V-FITC and 5 μL 7-amino-actinomycin D (7AAD) for 15 min at 37° C., avoiding light. Finally, the stained samples were analyzed on a Guava Easycyte Flowcytometer (Millipore-Sigma) at an excitation wavelength of 488 nm and emission filters of 525 and 625 nm. For MNs, the apoptotic assay was conducted on two different markers, FITC-conjugated-annexinV (ab201540) or Cleaved caspase 3 (9669S). For annexinV detection, MNs in 96-well plates were washed twice with PBS. Then, 100 μL Annexin V binding buffer was added with 5 μL Annexin V-FITC for 5 min incubation at 37° C., avoiding light. The stained plate was analyzed on a SpectraMax iD3 Multi-Mode Microplate Reader (490/525 nm). For the Cleaved caspase 3, the immunofluorescence protocol was used.
as §1
Based on the absence of neuroprotective activity in the differentiated progeny of iPSCs, we decided to confirm and mechanistically extrapolate the relationship between the protective effects and pluripotency. […] To follow on the requirement for pluripotency, we employed a screen with inhibitors of pluripotency that modify the epigenetic states of iPSCs. […]

[5] abbreviates: iPSCs treated 3 days with 10 μM GSK126 before CM collection, N=4, P<0.01.

In the case of `Nc1ncn([C@@H]2O[C@H](CO)[C@@H](O)[C@H]2O)c(=O)n1` [5Aza, 5-Azacytidine], in series [1], the “Expression of OCT4 compared to the untreated groups (WTC11 and CS07)” value is recorded as “significantly decreased”.
`C[C@@H]1O[C@@H](CC(=O)O)CC2=C1C(=O)c1c(O)cccc1C2=O` [NaA, Nanomycin A]: the “Expression of OCT4 compared to the untreated groups (WTC11 and CS07)” value in series [1] was “significantly decreased”.
With `OO` [H2O2], in series [2], the “Cell viability (MTT) after H2O2 treatment” value is listed as “below 50%” and the “Cell viability after H2O2 treatment, normalized to the values at the 0 concentration” value was “below 0.5”. In addition, the “Viability (MTT) of human MNs with H2O2 alone or co-treated with CM or fraction” value in series [3] (H2O2, 200 μg/ml HBPs, unfractionated CM, N=4) turned out to be 0.49±0.01. Also, the “Motor neuron viability after H2O2 treatment” value in series [3] (human MNs, 200 μM H2O2) is reported as “below 50%”.
Take `CC[C@H](C)n1cc(C)c2c(C(=O)NCc3c(C)cc(C)[nH]c3=O)cc(-c3ccc(N4CCNCC4)nc3)cc21` [GSK126]: the “Effect of treating ALS iPSCs with the epigenetic inhibitor on the neuroprotective activity of their CM” value in series [4] (MNPs exposed to H2O2, pre-treated with CM) is “significantly reduced the neuroprotective activity”. Further, in series [4] (setting [5]), the “Apoptosis (Annexin V) of H2O2 exposed ALS-MNPs treated with CM of ALS iPSCs without or with inhibitor pre-treatment” value was 2.65±0.23 and the “Viability (MTT) of H2O2 exposed ALS-MNPs treated with CM of ALS iPSCs without or with inhibitor pre-treatment” value was 0.47±0.02. Also, the “Expression of OCT4 compared to the untreated groups (WTC11 and CS07)” value in series [1] was “the decrease was not significant”.
